Structures are written as SMILES.

For the first assay, the system named is AGS cells (KRAS^G12D). Nature of the assay: Detection of cell proliferation in vitro by MTT/MTS method (cell activity experiment). The assay is classed as cell-based. The following applies: AGS cells; MTT/MTS; 3 days of drug treatment; read-out: AGS IC50. The method, boiled down:
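After 3-day compound exposure (final DMSO 0.5%), viability of AGS (KRAS G12D) cells, plated 1000/well one day before dosing, was measured at 490 nm following 4 h MTT or MTS incubation. IC50 was fitted from dose–effect curves relative to DMSO-treated wells.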
On the technique in general: Tetrazolium dyes change colour on reduction, which living cells bring about.
Regarding `C#Cc1c(F)ccc2cc(O)cc(-c3ccc4c(N5C[C@H]6CC[C@@H](C5)[C@@H]6F)nc(OC[C@@]56CCCN5C[C@H](F)C6)nc4c3F)c12` [Example 123, 5-ethynyl-6-fluoro-4-(8-fluoro-4-((1R,5S, 8R)-8-fluoro-3-azabicyclo[3.2.1]octan-3-yl)-2-(((2R,7aS)-2-fluorotetrahydro-1H-pyrrolizin-7a(5H)-yl)methoxy)quinazolin-7-yl)naphthalen-2-ol], the IC50 is above 2500 nM.

The assay is the same for the next values; noted with them: Homo sapiens, AGS, 72 h, AGS cells; MTT/MTS; 3 days of drug treatment; read-out: AGS IC50.
As for `Nc1cc2ccccc2c(-c2ncc3c(N4C[C@H]5CC[C@@H](C4)N5)nc(OCC4(CN5CCCC5)CC4)nc3c2F)n1` [Example 7, 1-(4-((1R,5S)-3,8-diazabicyclo[3.2.1]octan-3-yl)-8-fluoro-2-((1-(pyrrolidin-1-ylmethyl)cyclopropyl)methoxy)pyrido[4,3-d]pyrimidin-7-yl)isoquinolin-3-amine], the half-maximal inhibitory concentration (IC50) came to 2580 nM. Same read-out and setting: under `CC1CCCc2cc(O)cc(C3=C(F)c4nc(OC[C@@]56CCCN5C[C@H](F)C6)nc(N5C[C@H]6CC[C@@H](C5)N6)c4C4=NCCN43)c21` (stereo partly drawn) [Example 407, 4-(10-((1R,5S)-3,8-diazabicyclo[3.2.1]octan-3-yl)-6-fluoro-8-(((2R,7aS)-2-fluorotetrahydro-1H-pyrrolizin-7a(5H)-yl)methoxy)-2,3-dihydroimidazo[1′,2′:1,2]pyrido[4,3-d]pyrimidin-5-yl)-5-methyl-5,6,7,8-tetrahydronaphthalen-2-ol] stands 35 nM.

Take `CCc1ccc2cc(O)cc(C3=C(F)c4nc(OC[C@@]56CCCN5C[C@H](F)C6)nc(N5C[C@H]6CC[C@@H](C5)N6)c4C4=NCCN43)n12` [Example 412, 5-(10-((1R,5S)-3,8-diazabicyclo[3.2.1]octan-3-yl)-6-fluoro-8-(((2R,7aS)-2-fluorotetrahydro-1H-pyrrolizin-7a(5H)-yl)methoxy)-2,3-dihydroimidazo[1′,2′:1,2]pyrido[4,3-d]pyrimidin-5-yl)-3-ethylindolizin-7-ol]: the IC50 was 35 nM. Still for that read-out and setting: under `CCC1C(=O)Cc2cc(O)cc(-c3ncc4c(N5C[C@H]6CC[C@@H](C5)N6)nc(OC[C@@]56CCCN5C[C@H](F)C6)nc4c3F)c21` (stereo partly drawn) [Example 263, 7-(4-((1R,5S)-3,8-diazabicyclo[3.2.1]octan-3-yl)-8-fluoro-2-(((2R,7aS)-2-fluorotetrahydro-1H-pyrrolizin-7a(5H)-yl)methoxy)pyrido[4,3-d]pyrimidin-7-yl)-1-ethyl-5-hydroxy-1,3-dihydro-2H-inden-2-one] stands above 10000 nM. Same read-out and setting: under `CCC1CCCc2cc(O)cc(-c3c(Cl)cc4c(N5C[C@H]6CC[C@@H](C5)N6)nc(OC[C@@]56CCCN5C[C@H](F)C6)nc4c3F)c21` (stereo partly drawn) [Example 303, 4-(4-((1R,5S)-3,8-diazabicyclo[3.2.1]octan-3-yl)-6-chloro-8-fluoro-2-(((2R,7aS)-2-fluorotetrahydro-1H-pyrrolizin-7a(5H)-yl)methoxy)quinazolin-7-yl)-5-ethyl-5,6,7,8-tetrahydronaphthalen-2-ol] stands 22 nM; under `CCC1CCc2cc(O)cc(C3=C(F)c4nc(OC[C@@]56CCCN5C[C@H](F)C6)nc(N5C[C@H]6CC[C@@H](C5)N6)c4C4=NCCN43)c21` (stereo partly drawn) [Example 408, 7-(10-((1R,5S)-3,8-diazabicyclo[3.2.1]octan-3-yl)-6-fluoro-8-(((2R,7aS)-2-fluorotetrahydro-1H-pyrrolizin-7a(5H)-yl)methoxy)-2,3-dihydroimidazo[1′,2′:1,2]pyrido[4,3-d]pyrimidin-5-yl)-1-ethyl-2,3-dihydro-1H-inden-5-ol], 41 nM; under `C#Cc1c(F)ccc2cc(O)cc(-c3ccc4c(N5CC(C(C)N)C5)nc(OC[C@@]56CCCN5C[C@H](F)C6)nc4c3F)c12` (stereo partly drawn) [Example 213, 4-(4-(3-(1-aminoethyl)azetidin-1-yl)-8-fluoro-2-(((2R,7aS)-2-fluorotetrahydro-1H-pyrrolizin-7a(5H)-yl)methoxy)quinazolin-7-yl)-5-ethynyl-6-fluoronaphthalen-2-ol], above 2500 nM. The same measure, in the same setting: under `Oc1cc(-c2ncc3c(N4C[C@H]5CC[C@@H](C4)N5)nc(OC[C@@]45CCCN4C[C@H](F)C5)nc3c2F)c2c(c1)C1CC1C2` (stereo partly drawn) [Example 245, 5-(4-((1R,5S)-3,8-diazabicyclo[3.2.1]octan-3-yl)-8-fluoro-2-(((2R,7aS)-2-fluorotetrahydro-1H-pyrrolizin-7a(5H)-yl)methoxy)pyrido[4,3-d]pyrimidin-7-yl)-1,1a,6,6a-tetrahydrocyclopropa[a]inden-3-ol] stands 25 nM; under `C#Cc1cccc2cc(O)cc(-c3ccc4c(N5C[C@H]6CC[C@@H](C5)N6)nc(OCC5(CN6CCCC6)CC5)nc4c3F)c12` [Example 103, 4-(4-((1R,5S)-3,8-diazabicyclo[3.2.1]octan-3-yl)-8-fluoro-2-((1-(pyrrolidin-1-ylmethyl)cyclopropyl)methoxy)quinazolin-7-yl)-5-ethynylnaphthalen-2-ol], 29 nM. Consider `C#Cc1c(F)ccc2cc(O)cc(-c3ncc4c(N5C[C@H]6CC[C@@H](C5)N6)c(C(F)(F)F)c(OC[C@@]56CCCN5C[C@H](F)C6)nc4c3F)c12` [Example 196, 4-(4-((1R,5S)-3,8-diazabicyclo[3.2.1]octan-3-yl)-8-fluoro-2-(((2R,7aS)-2-fluorotetrahydro-1H-pyrrolizin-7a(5H)-yl)methoxy)-3-(trifluoromethyl)-1,6-naphthyridin-7-yl)-5-ethynyl-6-fluoronaphthalen-2-ol], for which the IC50 was above 2500 nM. Same read-out and setting: under `C#CC1CCc2cc(O)cc(-c3ncc4c(N5C[C@H]6CC[C@@H](C5)N6)nc(OC[C@@]56CCCN5C[C@H](F)C6)nc4c3F)c21` (stereo partly drawn) [Example 247, 7-(4-((1R,5S)-3,8-diazabicyclo[3.2.1]octan-3-yl)-8-fluoro-2-(((2R,7aS)-2-fluorotetrahydro-1H-pyrrolizin-7a(5H)-yl)methoxy)pyrido[4,3-d]pyrimidin-7-yl)-1-ethynyl-2,3-dihydro-1H-inden-5-ol] stands 6.1 nM. Consider `C#Cc1c(F)ccc2cc(N)nc(-c3ncc4c(N5C[C@H]6CC[C@@H](C5)N6)nc(OC[C@@]56CCCN5C[C@H](F)C6)nc4c3F)c12` [Example 40, 1-(4-((1R,5S)-3,8-diazabicyclo[3.2.1]octan-3-yl)-8-fluoro-2-(((2R,7aS)-2-fluorotetrahydro-1H-pyrrolizin-7a(5H)-yl)methoxy)pyrido[4,3-d]pyrimidin-7-yl)-8-ethynyl-7-fluoroisoquinolin-3-amine], for which the IC50 was above 2500 nM. For `CCc1c(F)ccc2cc(O)cc(-c3ccc4c(N5C[C@H]6CC[C@@H](C5)N6)nc(OC[C@@]56CCCN5C[C@H](F)C6)nc4c3)c12` [Example 149, 4-(4-((1R,5S)-3,8-diazabicyclo[3.2.1]octan-3-yl)-2-(((2R, 7aS)-2-fluorotetrahydro-1H-pyrrolizin-7a(5H)-yl)methoxy)quinazolin-7-yl)-5-ethyl-6-fluoronaphthalen-2-ol], the half-inhibitory concentration (IC50) worked out at 320 nM.

Consider `C#Cc1c(F)ccc2cc(O)cc(-c3ncc4c(N5CC6CCC(C5)C6F)nc(OC[C@@]56CCCN5C[C@H](F)C6)nc4c3F)c12` (stereo partly drawn) [Example 34, 5-ethynyl-6-fluoro-4-(8-fluoro-4-((1R,5S, 8R)-8-fluoro-3-azabicyclo [3.2.1]octan-3-yl)-2-(((2R,7aS)-2-fluorotetrahydro-1H-pyrrolizin-7a(5H)-yl)methoxy)pyrido[4,3-d]pyrimidin-7-yl) naphthalen-2-ol], for which the IC50 was above 2500 nM.

In general, IC50 refers to the concentration at which inhibition is half-maximal.

These data come from patent US20240300980A1, “HETEROCYCLIC COMPOUNDS AS KRAS INHIBITOR, AND PREPARATION THEREFOR AND USE THEREOF IN TREATMENT” (SHANGHAI KECHOW PHARMA, INC., priority 2021, published 2024).
